Test results reported in PubChem BioAssay AID272 (DTP/NCI, 2004).
Values joined by “and” are separate entries in the source; they are usually repeats but may differ in a detail not shown here. Identical values can stand only once. Results filed as inconclusive are left out.

System: Lewis lung carcinoma i.m., BDF1 mice, T/C %
Assay: NCI In Vivo Anticancer Drug Screen. Data for tumor model Lewis Lung Carcinoma (intramuscular) in B6D2F1 (BDF1) mice
Procedure, shortened: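 Tumour-bearing mice were dosed with compound, and either their survival or their tumour size was measured. Results were expressed relative to vehicle-treated controls as T/C.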

[1] = endpoint: median survival time, dose: 6.25 mg/kg/injection, schedule: Q01DX011 (ip), vehicle: saline, higher = longer survival
[2] = endpoint: median survival time, dose: 12.5 mg/kg/injection, schedule: Q01DX011 (ip), vehicle: saline, higher = longer survival
[3] = endpoint: median survival time, dose: 25.0 mg/kg/injection, schedule: Q01DX011 (ip), vehicle: saline, higher = longer survival
[4] = endpoint: mean tumor weight (est.), dose: 12.5 mg/kg/injection, schedule: Q01DX011 (ip), vehicle: saline, higher = larger tumour
[5] = endpoint: mean tumor weight (est.), dose: 25.0 mg/kg/injection, schedule: Q01DX011 (ip), vehicle: saline, higher = larger tumour

O=P1(N(CCCl)CCCl)NCCCO1 (stereo unspecified)
T/C (endpoint: mean tumor weight (est.), dose: 65.0 mg/kg/injection, schedule: Q01DX011 (ip), vehicle: saline, higher = larger tumour): 40 % of control
T/C (endpoint: mean tumor weight, dose: 65.0 mg/kg/injection, schedule: Q01DX001 (sc), vehicle: saline, higher = larger tumour): 44 % of control
T/C (endpoint: mean tumor weight, dose: 100.0 mg/kg/injection, schedule: Q01DX001 (ip), vehicle: saline, higher = larger tumour): 58 % of control
T/C (endpoint: mean tumor weight, dose: 108.0 mg/kg/injection, schedule: Q01DX001 (sc), vehicle: saline, higher = larger tumour): 39 % of control
T/C (endpoint: mean tumor weight, dose: 180.0 mg/kg/injection, schedule: Q01DX001 (ip), vehicle: saline, higher = larger tumour): 13 % of control
T/C (endpoint: mean tumor weight, dose: 180.0 mg/kg/injection, schedule: Q01DX001 (sc), vehicle: saline, higher = larger tumour): 27 % of control
T/C (endpoint: mean tumor weight, dose: 300.0 mg/kg/injection, schedule: Q01DX001 (sc), vehicle: saline, higher = larger tumour): 31 % of control
T/C (endpoint: median survival time, dose: 6.25 mg/kg/injection, schedule: Q01DX009 (ip), vehicle: saline, higher = longer survival): 106 % of control
T/C (endpoint: median survival time, dose: 12.5 mg/kg/injection, schedule: Q01DX009 (ip), vehicle: saline, higher = longer survival): 116 % of control
T/C (endpoint: median survival time, dose: 12.5 mg/kg/injection, schedule: Q03DX010 (ip), vehicle: saline, higher = longer survival): 109 % of control and 110 % of control
T/C (endpoint: median survival time, dose: 19.0 mg/kg/injection, schedule: Q01DX007 (sc), vehicle: saline, higher = longer survival): 100 % of control
T/C (endpoint: median survival time, dose: 23.0 mg/kg/injection, schedule: Q08DX003 (sc), vehicle: saline, higher = longer survival): 121 % of control
T/C (endpoint: median survival time, dose: 25.0 mg/kg/injection, schedule: Q01DX009 (ip), vehicle: saline, higher = longer survival): 114 % of control
T/C (endpoint: median survival time, dose: 39.0 mg/kg/injection, schedule: Q08DX003 (ip), vehicle: saline, higher = longer survival): 100 % of control and 105 % of control
T/C (endpoint: median survival time, dose: 39.0 mg/kg/injection, schedule: Q08DX003 (sc), vehicle: saline, higher = longer survival): 184 % of control and 186 % of control
T/C (endpoint: median survival time, dose: 50.0 mg/kg/injection, schedule: Q01DX001 (ip), vehicle: methylcellulose (MC), higher = longer survival): 104 % of control and 106 % of control
T/C (endpoint: median survival time, dose: 50.0 mg/kg/injection, schedule: Q01DX009 (ip), vehicle: saline, higher = longer survival): 114 % of control
T/C (endpoint: median survival time, dose: 52.0 mg/kg/injection, schedule: Q01DX007 (sc), vehicle: saline, higher = longer survival): 95 % of control and 105 % of control
T/C (endpoint: median survival time, dose: 65.0 mg/kg/injection, schedule: Q08DX003 (ip), vehicle: saline, higher = longer survival): 161 % of control
T/C (endpoint: median survival time, dose: 65.0 mg/kg/injection, schedule: Q08DX003 (sc), vehicle: saline, higher = longer survival): 191 % of control and 192 % of control
T/C (endpoint: median survival time, dose: 65.0 mg/kg/injection, schedule: Q14DX002 (ip), vehicle: saline, higher = longer survival): 168 % of control
T/C (endpoint: median survival time, dose: 86.0 mg/kg/injection, schedule: Q01DX007 (sc), vehicle: saline, higher = longer survival): 78 % of control
T/C (endpoint: median survival time, dose: 100.0 mg/kg/injection, schedule: Q01DX001 (ip), vehicle: methylcellulose (MC), higher = longer survival): 198 % of control and 235 % of control
T/C (endpoint: median survival time, dose: 100.0 mg/kg/injection, schedule: Q14DX002 (ip), vehicle: saline, higher = longer survival): 159 % of control
T/C (endpoint: median survival time, dose: 108.0 mg/kg/injection, schedule: Q08DX003 (ip), vehicle: saline, higher = longer survival): 89 % of control
T/C (endpoint: median survival time, dose: 108.0 mg/kg/injection, schedule: Q08DX003 (sc), vehicle: saline, higher = longer survival): 173 % of control and 186 % of control
T/C (endpoint: median survival time, dose: 108.0 mg/kg/injection, schedule: Q14DX002 (ip), vehicle: saline, higher = longer survival): 154 % of control
T/C (endpoint: median survival time, dose: 144.0 mg/kg/injection, schedule: Q01DX001 (sc), vehicle: saline, higher = longer survival): 151 % of control
T/C (endpoint: median survival time, dose: 180.0 mg/kg/injection, schedule: Q08DX003 (ip), vehicle: saline, higher = longer survival): 68 % of control
T/C (endpoint: median survival time, dose: 180.0 mg/kg/injection, schedule: Q08DX003 (sc), vehicle: saline, higher = longer survival): 100 % of control and 103 % of control
T/C (endpoint: median survival time, dose: 180.0 mg/kg/injection, schedule: Q14DX002 (ip), vehicle: saline, higher = longer survival): 113 % of control
T/C (endpoint: median survival time, dose: 200.0 mg/kg/injection, schedule: Q01DX001 (ip), vehicle: methylcellulose (MC), higher = longer survival): 39 % of control
T/C (endpoint: median survival time, dose: 200.0 mg/kg/injection, schedule: Q03DX010 (ip), vehicle: saline, higher = longer survival): 30 % of control
T/C (endpoint: median survival time, dose: 200.0 mg/kg/injection, schedule: Q14DX002 (ip), vehicle: saline, higher = longer survival): 122 % of control
T/C (endpoint: median survival time, dose: 240.0 mg/kg/injection, schedule: Q01DX001 (sc), vehicle: saline, higher = longer survival): 174 % of control and 180 % of control
T/C (endpoint: median survival time, dose: 300.0 mg/kg/injection, schedule: Q01DX001 (ip), vehicle: saline, higher = longer survival): 63 % of control
T/C (endpoint: median survival time, dose: 300.0 mg/kg/injection, schedule: Q01DX001 (sc), vehicle: saline, higher = longer survival): 160 % of control
T/C (endpoint: median survival time, dose: 300.0 mg/kg/injection, schedule: Q08DX003 (ip), vehicle: saline, higher = longer survival): 57 % of control
T/C (endpoint: median survival time, dose: 400.0 mg/kg/injection, schedule: Q01DX001 (ip), vehicle: methylcellulose (MC), higher = longer survival): 22 % of control
T/C (endpoint: median survival time, dose: 400.0 mg/kg/injection, schedule: Q01DX001 (ip), vehicle: saline, higher = longer survival): 60 % of control
T/C (endpoint: median survival time, dose: 400.0 mg/kg/injection, schedule: Q01DX001 (sc), vehicle: saline, higher = longer survival): 49 % of control
T/C (endpoint: median survival time, dose: 460.0 mg/kg/injection, schedule: Q01DX001 (ip), vehicle: saline, higher = longer survival): 18 % of control
T/C (endpoint: median tumor weight (est.), dose: 65.0 mg/kg/injection, schedule: Q01DX001 (ip), vehicle: saline, higher = larger tumour): 27 % of control

CC1OC(=O)C(C2OC2C)=CC1O (stereo unspecified)
T/C (endpoint: mean tumor weight, dose: 6.25 mg/kg/injection, schedule: Q01DX011 (ip), vehicle: saline, higher = larger tumour): 93 % of control
T/C (endpoint: mean tumor weight, dose: 12.5 mg/kg/injection, schedule: Q01DX011 (ip), vehicle: saline, higher = larger tumour): 99 % of control
T/C (endpoint: mean tumor weight, dose: 25.0 mg/kg/injection, schedule: Q01DX011 (ip), vehicle: saline, higher = larger tumour): 78 % of control
T/C [1]: 102 % of control
T/C [2]: 109 % of control
T/C [3]: 107 % of control

CC(=N/NC(N)=S)/C(C)=N/NC(N)=S
T/C (endpoint: mean tumor weight (est.), dose: 100.0 mg/kg/injection, schedule: Q01DX011 (ip), vehicle: saline with Tween-80, higher = larger tumour): 73 % of control
T/C (endpoint: mean tumor weight (est.), dose: 200.0 mg/kg/injection, schedule: Q01DX011 (ip), vehicle: saline with Tween-80, higher = larger tumour): 65 % of control
T/C (endpoint: mean tumor weight (est.), dose: 400.0 mg/kg/injection, schedule: Q01DX011 (ip), vehicle: saline with Tween-80, higher = larger tumour): 42 % of control
T/C (endpoint: median survival time, dose: 100.0 mg/kg/injection, schedule: Q01DX011 (ip), vehicle: saline with Tween-80, higher = longer survival): 93 % of control
T/C (endpoint: median survival time, dose: 200.0 mg/kg/injection, schedule: Q01DX011 (ip), vehicle: saline with Tween-80, higher = longer survival): 91 % of control
T/C (endpoint: median survival time, dose: 400.0 mg/kg/injection, schedule: Q01DX011 (ip), vehicle: saline with Tween-80, higher = longer survival): 91 % of control

OC1CCCC2CCC[N-]C12.OC1CCCC2CCC[N-]C12.[O]=[V][OH] (stereo unspecified)
T/C (endpoint: mean tumor weight (est.), dose: 6.25 mg/kg/injection, schedule: Q01DX011 (ip), vehicle: saline, higher = larger tumour): 86 % of control
T/C [4]: 70 % of control
T/C [5]: 50 % of control
T/C [1]: 101 % of control
T/C [2]: 107 % of control
T/C [3]: 107 % of control

O=P1(NCCCl)OCCCN1CCCl (stereo unspecified)
T/C (endpoint: mean tumor weight, dose: 23.0 mg/kg/injection, schedule: Q01DX011 (ip), vehicle: water, higher = larger tumour): 101 % of control
T/C (endpoint: mean tumor weight, dose: 39.0 mg/kg/injection, schedule: Q01DX011 (ip), vehicle: water, higher = larger tumour): 66 % of control
T/C (endpoint: mean tumor weight, dose: 108.0 mg/kg/injection, schedule: Q01DX001 (ip), vehicle: water, higher = larger tumour): 72 % of control
T/C (endpoint: mean tumor weight, dose: 180.0 mg/kg/injection, schedule: Q01DX001 (ip), vehicle: water, higher = larger tumour): 14 % of control
T/C (endpoint: median survival time, dose: 23.0 mg/kg/injection, schedule: Q01DX011 (ip), vehicle: water, higher = longer survival): 118 % of control and 122 % of control
T/C (endpoint: median survival time, dose: 39.0 mg/kg/injection, schedule: Q01DX011 (ip), vehicle: water, higher = longer survival): 94 % of control and 124 % of control
T/C (endpoint: median survival time, dose: 65.0 mg/kg/injection, schedule: Q07DX Z (ip), vehicle: water, higher = longer survival): 110 % of control
T/C (endpoint: median survival time, dose: 108.0 mg/kg/injection, schedule: Q01DX001 (ip), vehicle: water, higher = longer survival): 88 % of control and 98 % of control
T/C (endpoint: median survival time, dose: 108.0 mg/kg/injection, schedule: Q01DX011 (ip), vehicle: water, higher = longer survival): 104 % of control
T/C (endpoint: median survival time, dose: 108.0 mg/kg/injection, schedule: Q04DX Z (ip), vehicle: water, higher = longer survival): 98 % of control
T/C (endpoint: median survival time, dose: 108.0 mg/kg/injection, schedule: Q07DX Z (ip), vehicle: water, higher = longer survival): 112 % of control
T/C (endpoint: median survival time, dose: 180.0 mg/kg/injection, schedule: Q01DX001 (ip), vehicle: water, higher = longer survival): 114 % of control
T/C (endpoint: median survival time, dose: 180.0 mg/kg/injection, schedule: Q07DX Z (ip), vehicle: water, higher = longer survival): 104 % of control
T/C (endpoint: median survival time, dose: 300.0 mg/kg/injection, schedule: Q01DX001 (ip), vehicle: water, higher = longer survival): 164 % of control and 178 % of control
T/C (endpoint: median survival time, dose: 300.0 mg/kg/injection, schedule: Q04DX Z (ip), vehicle: water, higher = longer survival): 120 % of control
T/C (endpoint: median survival time, dose: 300.0 mg/kg/injection, schedule: Q07DX Z (ip), vehicle: water, higher = longer survival): 158 % of control

O=[N+]([O-])c1cc([N+](=O)[O-])c(Nn2c3ccccc3c3ccccc32)c([N+](=O)[O-])c1
T/C (endpoint: median survival time, dose: 12.5 mg/kg/injection, schedule: Q01DX011 (ip), vehicle: saline with Tween-80, higher = longer survival): 97 % of control
T/C (endpoint: median survival time, dose: 25.0 mg/kg/injection, schedule: Q01DX011 (ip), vehicle: saline with Tween-80, higher = longer survival): 102 % of control
T/C (endpoint: median survival time, dose: 50.0 mg/kg/injection, schedule: Q01DX011 (ip), vehicle: saline with Tween-80, higher = longer survival): 108 % of control

Cc1cc[n+](CCc2ccccc2)cc1
T/C [4]: 76 % of control
T/C [5]: 95 % of control
T/C (endpoint: mean tumor weight (est.), dose: 50.0 mg/kg/injection, schedule: Q01DX011 (ip), vehicle: saline, higher = larger tumour): 75 % of control
T/C [2]: 94 % of control
T/C [3]: 102 % of control
T/C (endpoint: median survival time, dose: 50.0 mg/kg/injection, schedule: Q01DX011 (ip), vehicle: saline, higher = longer survival): 106 % of control
